The values below come from article PMC6973281 (2019).

Structures are written as SMILES.

For experiment [1], the system named is 22AG (DNA, G4) AGGGTTAGGGTTAGGGTTAGGG
The experiment can be described thus: spectrophotometric titration. As to conditions: K+ 73 mM; K-phosphate buffer pH 7.0, 5 % v/v DMSO, 20 °C; 5 μM compound; isotherm could not be fitted.

For experiment [2] the test system is unchanged. Nature of the experiment: spectrophotometric titration, independent-site fit. As to conditions: K+ 73 mM; K-phosphate buffer pH 7.0, 5 % v/v DMSO, 20 °C; 5 μM compound; unit not given.

With `CCOC(=O)c1csc(/N=N/c2nc(C(=O)OCC)c(NCCCN(C)C)s2)n1`, the binding result in experiment [1] is reported as “weak”.
For `CCOC(=O)c1nc(/N=N/c2nc(C(=O)OCC)c(NCCCN(C)C)s2)sc1NCCCN(C)C`, in experiment [2], the “K 22AG” value is on record as 2.4×10^4.
